Test results as given in US20190201430A1, “TREATING OCULAR NEOVASCULARIZATION” (Massachusetts Eye and Ear Infirmary, priority 2014, published 2019).
Structures can show the parent of a compound that is named as a salt.

What was measured:
endothelial cells = settings: in the absence of VEGF; cited from earlier work
AMPK [1] = experiment: Western blotting of AMPK phosphorylation in HUVEC (Example 1); format: cell-based, human; settings: DPY or IODO 1 h, then AICAR 2 mM 2 h, FIG. 2B,F
Description: (§1) HUVECs (Lonza, Walkersville, Md.) were cultured in Endothelial Growth Medium (EGM, Lonza, Walkersville, Md.). For all experiments, cells were grown at 37° C. in a humidified atmosphere of 5% CO2 and 95% air. Experiments were performed on cells below passage 3 to 6 grown to 80-90% confluence.
(§2) Protein extraction and western blotting were carried out as described previously (Morizane et al. JBC). Densitometric analysis of bands was performed using ImageJ software. Lane-loading differences were normalized by β-actin.

AMPK [2] = experiment: Western blotting of AMPK phosphorylation in HUVECs (Example 2); format: cell-based, human
Description: (§3) Human umbilical vein endothelial cells (HUVECs) were cultured in endothelial growth medium (EGM, Lonza, Walkersville, Md.). Normal human dermal fibroblasts (NHDFs) were cultured in fibroblast basal medium (ATCC, Rockville, Md.). Cells were grown at 37° C. in a humidified atmosphere of 95% air, 5% CO2. Experiments were performed on cells below passage 3 to 6 grown to 80%-90% confluence.
(§4) Protein extraction and Western blotting were carried out as described previously (Morizane et al. JBC (26)). We conducted a densitometric analysis of bands using ImageJ software. Lane-loading differences were normalized by β-actin.

caveolin-1 [3] = experiment: Western blotting of H2O2 induced caveolin-1 phosphorylation in HUVEC; format: cell-based, human; settings: for effect of inhibitor pretreatment on the inhibitory effect of AICAR on H2O2 induced caveolin-1 phosphorylation: DPY 8 μM or IODO 0.4 μM 1 h, AICAR 2 mM 2 h, H2O2 2 mM 30 min, FIG. 2
Description: as §1, §2
(§5) Cells were transfected with siRNAs using Nucleofection kit (Amaxa Biosysteins, Gaithersburg, Md.), following the manufacturer's protocol. The medium was changed at 6 h after transfection. The down-regulation of each protein was evaluated at 3 days after nucleofection.

c-Abl [4] = experiment: Western blotting of H2O2 induced c-Abl phosphorylation in HUVEC; format: cell-based, human; settings: DPY 8 μM or IODO 0.4 μM 1 h, AICAR 2 mM 2 h, H2O2 2 mM 30 min; FIG. 2
Description: as §1, §2, §5

c-Abl [5] = experiment: Western blotting of VEGF induced c-Abl phosphorylation in HUVECs; format: cell-based, human; settings: IODO 0.4 μM 1 h, AICAR 2 mM 2 h, VEGF 12.5 ng/mL 10 min; FIG. 12D,E
Description: as §3, §4
(§6) Cells were transfected with siRNAs using a Nucleofection kit (Amaxa Biosystems, Gaithersburg, Md.), following the manufacturer's protocol. The medium was changed 6 h after transfection. The down-regulation of each protein was evaluated 3 days after nucleofection.

PTEN = experiment: Western blotting of PTEN phosphorylation in HUVECs; format: cell-based, human; settings: IODO 0.1 μM 60 min, then AICAR 2 mM; FIG. 9A,D
Description: as §3, §4

Akt = experiment: Western blotting of Akt phosphorylation in HUVECs (VEGF); format: cell-based, human
Description: as §3, §4, §6

prdx1/c-Abl complex [6] = experiment: Co-immunoprecipitation of prdx1 and c-Abl under VEGF; format: cell-based, human; settings: AK inhibitor IODO; FIG. 15D,E
Description: Immunoprecipitation was performed with the Universal Magnetic Co-IP Kit (Active Motif North America, Carlsbad, Calif.) according to the manufacturer's instruction.
as §6

prdx1/c-Abl complex [7] = experiment: Co-immunoprecipitation of prdx1 and c-Abl under H2O2; format: cell-based, human; settings: IODO before AICAR and H2O2; FIG. 6D
Description: Immunoprecipitation was performed with the Universal Magnetic Co-IP Kit (Active Motif North America, Carlsbad, Calif.), according to the manufacturer's instruction.
as §5

caveolin-1 [8] = experiment: Western blotting of VEGF induced caveolin-1 phosphorylation in HUVECs; format: cell-based, human
Description: as §3, §4, §6

[9] = IODO 0.4 μM 1 h, AICAR 2 mM 2 h, VEGF 12.5 ng/mL 10 min, FIG. 12D,E

N#Cc1c(O)c2c(-c3ccc(-c4ccccc4O)cc3)csc2[nH]c1=O [A769662, 4-hydroxy-3-[4-(2-hydroxyphenyl)phenyl]-6-oxo-7H-thieno[2,3-b]pyridine-5-carbonitrile]
endothelial proliferation (endothelial cells): suppressed endothelial proliferation

OCCN(CCO)c1nc(N2CCCCC2)c2nc(N(CCO)CCO)nc(N3CCCCC3)c2n1 [DPY, dipyridamole]
AICAR induced AMPK phosphorylation after inhibitor pretreatment (AMPK [1]): inhibited AICAR induced AMPK phosphorylation dose-dependently | AICAR induced AMPK phosphorylation after DPY pretreatment (AMPK [2]; each concentration of DPY 1 h, then AICAR 2 mM 2 h, FIG. 12B): inhibited AMPK phosphorylation | effect of inhibitor pretreatment on the inhibitory effect of AICAR on H2O2 induced caveolin-1 phosphorylation (caveolin-1 [3]): significantly restored | effect of inhibitor pretreatment on the inhibitory effect of AICAR on H2O2 induced c-Abl phosphorylation (c-Abl [4]): significantly restored

Nc1ncnc2c1c(I)cn2[C@@H]1O[C@H](CO)[C@@H](O)[C@H]1O [IODO, 5-Iodotubericidin]
effect of IODO on the inhibitory effect of AICAR on VEGF induced c-Abl phosphorylation (c-Abl [5]): significantly abolished | effect of IODO pretreatment on AICAR induced PTEN phosphorylation (PTEN): suppressed and delayed | AICAR induced AMPK phosphorylation after inhibitor pretreatment (AMPK [1]): inhibited AICAR induced AMPK phosphorylation dose-dependently | effect of IODO pretreatment on AICAR induced Akt dephosphorylation (Akt; IODO 0.1 μM 60 min, then AICAR 2 mM, FIG. 9A,C): suppressed and delayed | effect of IODO on the inhibitory effect of AICAR on VEGF induced Akt phosphorylation (Akt; [9]): significantly abolished | effect of IODO on AICAR inhibition of VEGF induced prdx1/c-Abl dissociation (prdx1/c-Abl complex [6]): abrogated | effect of IODO pretreatment on AICAR induced AMPK phosphorylation (AMPK [2]; IODO 0.1 μM 60 min, then AICAR 2 mM, FIG. 9A,B): suppressed and delayed | effect of inhibitor pretreatment on the inhibitory effect of AICAR on H2O2 induced caveolin-1 phosphorylation (caveolin-1 [3]): significantly restored | prdx1/c-Abl dissociation with IODO prior to H2O2 and AICAR (prdx1/c-Abl complex [7]): restored the dissociation | effect of inhibitor pretreatment on the inhibitory effect of AICAR on H2O2 induced c-Abl phosphorylation (c-Abl [4]): significantly restored | effect of IODO on the inhibitory effect of AICAR on VEGF induced caveolin-1 phosphorylation (caveolin-1 [8]; [9]): significantly abolished

Cc1ccc(NC(=O)c2ccc(CN3CCN(C)CC3)cc2)cc1Nc1nccc(-c2cccnc2)n1 [imatinib mesylate, Imatinib mesylate]
H2O2 induced phosphorylation of caveolin-1 (caveolin-1 [3]; HUVEC, imatinib mesylate 10 or 20 uM for 24, 48 or 72 h, then H2O2 2 mM 30 min, FIG. 5A,B): inhibited H2O2 induced phosphorylation of both caveolin-1 and c-Abl dose- and time-dependently | VEGF-induced phosphorylation of caveolin-1 (caveolin-1 [8]; imatinib mesylate 10 or 20 μM for 24, 48 or 72 h, then VEGF 12.5 ng/mL 10 min, FIG. 14A,C): inhibited the VEGF-induced phosphorylation of caveolin-1 and c-Abl in a time and dose dependent manner
